In ChEMBL document CHEMBL1153318, “Design of potent thiophene inhibitors of polo-like kinase 1 with improved solubility and reduced protein binding” (Bioorg Med Chem Lett, 2009):
Converted amounts (≈) assume the structure as drawn.

Assays:
[1] = Protein binding in human plasma at 2000 ng/mL after 6 hrs by equilibrium dialysis method; type: ADME, cell-free; details: read-out: PPB (converted)
[2] = Solubility in 0.05 M phosphate buffer at 200 uM at pH 7.4 after 15 mins by HPLC; type: physicochemical
[3] = tested on: HCT-116; assay: cells; details: Homo sapiens, HCT-116, 72 h
Description: Antiproliferative activity against human HCT116 cells after 72 hrs by luminescence-based cell viability assay

[4] = molecular target: Serine/threonine-protein kinase PLK3 (Homo sapiens, UniProt Q9H4B4); assay: biochemical
Serine/threonine-protein kinase PLK3, sequence (Q9H4B4 whole entry): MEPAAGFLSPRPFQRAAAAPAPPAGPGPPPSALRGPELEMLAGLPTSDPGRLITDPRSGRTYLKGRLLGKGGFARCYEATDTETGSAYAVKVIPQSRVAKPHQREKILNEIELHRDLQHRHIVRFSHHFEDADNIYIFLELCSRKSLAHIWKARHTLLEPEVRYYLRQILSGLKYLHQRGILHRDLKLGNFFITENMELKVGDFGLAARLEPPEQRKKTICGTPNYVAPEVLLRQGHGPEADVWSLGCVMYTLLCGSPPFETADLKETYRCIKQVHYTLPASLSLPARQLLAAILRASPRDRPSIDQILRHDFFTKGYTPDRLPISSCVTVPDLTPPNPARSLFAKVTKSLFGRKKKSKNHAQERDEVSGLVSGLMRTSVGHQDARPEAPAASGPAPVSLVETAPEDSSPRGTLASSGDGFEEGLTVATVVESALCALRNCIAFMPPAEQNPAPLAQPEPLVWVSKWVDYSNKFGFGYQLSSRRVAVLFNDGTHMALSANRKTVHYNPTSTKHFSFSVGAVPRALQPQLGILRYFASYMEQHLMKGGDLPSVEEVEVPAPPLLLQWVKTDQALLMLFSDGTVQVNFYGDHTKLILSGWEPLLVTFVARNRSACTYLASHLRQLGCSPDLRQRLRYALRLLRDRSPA
Description: Inhibition of full length human PLK3 expressed in baculovirus-infected Trichoplusia ni cells by scintillation proximity assay

[5] = molecular target: Serine/threonine-protein kinase PLK1 (Homo sapiens, UniProt P53350); assay: biochemical
Serine/threonine-protein kinase PLK1, sequence (P53350 whole entry): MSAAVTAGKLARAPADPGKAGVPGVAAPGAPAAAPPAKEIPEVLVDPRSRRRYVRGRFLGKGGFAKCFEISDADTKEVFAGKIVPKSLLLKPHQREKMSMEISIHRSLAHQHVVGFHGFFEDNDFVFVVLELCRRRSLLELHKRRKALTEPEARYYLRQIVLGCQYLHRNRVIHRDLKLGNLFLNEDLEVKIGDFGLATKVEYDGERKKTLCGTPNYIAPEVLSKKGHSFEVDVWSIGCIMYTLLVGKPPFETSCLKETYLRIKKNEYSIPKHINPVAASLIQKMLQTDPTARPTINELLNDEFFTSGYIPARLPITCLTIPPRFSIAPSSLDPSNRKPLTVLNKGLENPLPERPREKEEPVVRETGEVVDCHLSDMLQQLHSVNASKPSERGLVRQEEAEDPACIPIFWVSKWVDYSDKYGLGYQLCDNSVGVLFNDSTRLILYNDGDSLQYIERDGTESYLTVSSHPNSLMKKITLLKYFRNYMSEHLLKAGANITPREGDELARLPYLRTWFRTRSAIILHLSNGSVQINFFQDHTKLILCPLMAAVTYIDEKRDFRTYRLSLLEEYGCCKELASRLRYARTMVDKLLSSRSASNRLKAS
Description: Inhibition of human PLK1 kinase domain expressed in baculovirus-infected Trichoplusia ni cells by scintillation proximity assay

[6] = molecular target: T1, Serine/threonine-protein kinase Nek2 (Homo sapiens, UniProt P51955)
T1 sequence (P51955 whole entry): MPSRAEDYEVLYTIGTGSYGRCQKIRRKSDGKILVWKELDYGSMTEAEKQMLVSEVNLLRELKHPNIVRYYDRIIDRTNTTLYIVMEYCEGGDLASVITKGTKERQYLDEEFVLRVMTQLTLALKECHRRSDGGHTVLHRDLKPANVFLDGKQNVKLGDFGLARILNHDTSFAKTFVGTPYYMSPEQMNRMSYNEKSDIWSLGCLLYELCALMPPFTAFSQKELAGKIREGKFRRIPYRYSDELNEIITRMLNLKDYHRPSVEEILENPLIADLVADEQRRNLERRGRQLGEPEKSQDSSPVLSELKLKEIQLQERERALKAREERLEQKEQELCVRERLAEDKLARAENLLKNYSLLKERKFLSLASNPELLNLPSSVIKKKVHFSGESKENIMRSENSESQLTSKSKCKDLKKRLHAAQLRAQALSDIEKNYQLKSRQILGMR

[7] = molecular target: Vascular endothelial growth factor receptor 2 (Homo sapiens, UniProt P35968); assay: Inhibition of human VEGFR2
Vascular endothelial growth factor receptor 2, sequence (P35968 whole entry): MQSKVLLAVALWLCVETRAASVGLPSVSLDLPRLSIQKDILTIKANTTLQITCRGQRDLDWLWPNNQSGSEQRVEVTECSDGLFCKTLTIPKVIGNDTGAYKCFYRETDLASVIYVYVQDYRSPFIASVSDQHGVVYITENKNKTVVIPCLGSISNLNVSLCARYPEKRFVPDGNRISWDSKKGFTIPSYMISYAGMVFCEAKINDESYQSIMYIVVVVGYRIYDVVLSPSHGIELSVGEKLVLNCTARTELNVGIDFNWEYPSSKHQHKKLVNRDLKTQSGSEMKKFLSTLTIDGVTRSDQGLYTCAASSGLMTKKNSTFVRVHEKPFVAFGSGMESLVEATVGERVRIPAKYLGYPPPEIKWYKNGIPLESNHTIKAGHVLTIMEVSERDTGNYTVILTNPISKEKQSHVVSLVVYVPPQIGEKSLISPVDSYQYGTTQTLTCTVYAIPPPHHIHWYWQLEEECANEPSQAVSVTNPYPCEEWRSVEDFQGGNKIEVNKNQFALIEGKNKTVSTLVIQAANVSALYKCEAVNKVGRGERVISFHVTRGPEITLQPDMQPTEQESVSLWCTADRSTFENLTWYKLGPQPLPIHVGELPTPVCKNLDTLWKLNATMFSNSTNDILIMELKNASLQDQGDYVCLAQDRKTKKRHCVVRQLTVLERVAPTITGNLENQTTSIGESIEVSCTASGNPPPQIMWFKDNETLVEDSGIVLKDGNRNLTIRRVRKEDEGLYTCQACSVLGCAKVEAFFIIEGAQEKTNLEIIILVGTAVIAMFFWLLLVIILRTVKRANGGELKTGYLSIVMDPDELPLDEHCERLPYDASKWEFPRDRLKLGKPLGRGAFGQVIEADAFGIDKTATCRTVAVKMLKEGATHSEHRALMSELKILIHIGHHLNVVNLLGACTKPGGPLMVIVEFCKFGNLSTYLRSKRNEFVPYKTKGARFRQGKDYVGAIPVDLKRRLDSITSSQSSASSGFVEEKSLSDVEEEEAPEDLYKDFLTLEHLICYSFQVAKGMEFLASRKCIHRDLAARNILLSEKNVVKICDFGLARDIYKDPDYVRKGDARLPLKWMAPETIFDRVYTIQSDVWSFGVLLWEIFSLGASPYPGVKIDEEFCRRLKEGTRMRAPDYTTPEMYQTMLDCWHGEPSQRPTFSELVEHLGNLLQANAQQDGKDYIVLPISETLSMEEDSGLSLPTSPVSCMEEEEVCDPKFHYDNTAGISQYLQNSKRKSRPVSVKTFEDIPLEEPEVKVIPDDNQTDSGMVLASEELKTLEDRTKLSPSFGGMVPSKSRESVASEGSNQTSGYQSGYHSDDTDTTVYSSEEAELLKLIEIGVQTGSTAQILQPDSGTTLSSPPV

[8] = molecular target: Serine/threonine-protein kinase pim-1 (Homo sapiens, UniProt P11309); assay: Inhibition of human PIM1
Serine/threonine-protein kinase pim-1, sequence (P11309 whole entry): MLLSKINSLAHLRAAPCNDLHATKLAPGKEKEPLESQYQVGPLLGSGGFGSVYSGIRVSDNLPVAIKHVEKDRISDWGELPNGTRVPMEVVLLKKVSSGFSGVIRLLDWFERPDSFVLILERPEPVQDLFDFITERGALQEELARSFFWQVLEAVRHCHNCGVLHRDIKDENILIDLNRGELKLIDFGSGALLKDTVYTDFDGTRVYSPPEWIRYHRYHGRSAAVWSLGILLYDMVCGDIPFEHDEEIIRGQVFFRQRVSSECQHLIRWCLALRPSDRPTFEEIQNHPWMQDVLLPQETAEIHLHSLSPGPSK

[9] = molecular target: Platelet-derived growth factor receptor beta (Homo sapiens, UniProt P09619); assay: Inhibition of human PDGFR1beta
Platelet-derived growth factor receptor beta, sequence (P09619 whole entry): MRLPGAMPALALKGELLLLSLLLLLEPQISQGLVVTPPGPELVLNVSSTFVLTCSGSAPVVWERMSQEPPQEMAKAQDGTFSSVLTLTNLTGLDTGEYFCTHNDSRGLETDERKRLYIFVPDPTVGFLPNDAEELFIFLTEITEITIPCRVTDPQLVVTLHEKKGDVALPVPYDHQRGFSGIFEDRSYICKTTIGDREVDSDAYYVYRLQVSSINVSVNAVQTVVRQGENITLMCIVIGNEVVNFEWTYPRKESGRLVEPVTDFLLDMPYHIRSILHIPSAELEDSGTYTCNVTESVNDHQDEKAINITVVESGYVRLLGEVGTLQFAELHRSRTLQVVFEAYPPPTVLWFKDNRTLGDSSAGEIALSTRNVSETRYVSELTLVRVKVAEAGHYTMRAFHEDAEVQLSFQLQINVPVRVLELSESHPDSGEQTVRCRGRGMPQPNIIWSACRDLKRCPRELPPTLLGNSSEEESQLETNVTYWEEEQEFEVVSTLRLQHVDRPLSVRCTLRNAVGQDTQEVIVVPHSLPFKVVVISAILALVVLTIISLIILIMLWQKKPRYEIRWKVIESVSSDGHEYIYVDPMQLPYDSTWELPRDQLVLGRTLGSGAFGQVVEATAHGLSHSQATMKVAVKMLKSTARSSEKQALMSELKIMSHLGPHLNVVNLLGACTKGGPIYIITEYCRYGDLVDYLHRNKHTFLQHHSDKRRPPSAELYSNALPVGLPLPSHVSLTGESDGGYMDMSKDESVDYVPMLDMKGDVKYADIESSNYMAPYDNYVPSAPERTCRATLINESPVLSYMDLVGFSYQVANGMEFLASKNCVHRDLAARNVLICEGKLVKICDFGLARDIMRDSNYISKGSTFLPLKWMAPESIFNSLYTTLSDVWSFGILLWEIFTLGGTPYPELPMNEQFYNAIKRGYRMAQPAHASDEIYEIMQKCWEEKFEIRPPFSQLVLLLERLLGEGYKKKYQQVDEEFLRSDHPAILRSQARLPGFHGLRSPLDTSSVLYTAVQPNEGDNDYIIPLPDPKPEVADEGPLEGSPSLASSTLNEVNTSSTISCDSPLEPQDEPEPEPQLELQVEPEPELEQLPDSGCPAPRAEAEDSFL

[10] = tested on: MX1; assay: Antiproliferative activity against human MX1 cells after 72 hrs by luminescence-based cell viability assay; type: functional; details: MX1, 72 h
[11] = tested on: SK-OV-3; assay: Antiproliferative activity against human SKOV3 cells after 72 hrs by luminescence-based cell viability assay; type: functional; details: SK-OV-3, 72 h
[12] = molecular target: Phosphatidylinositol 4,5-bisphosphate 3-kinase catalytic subunit gamma isoform (Homo sapiens, UniProt P48736); assay: Inhibition of human PI3Kgamma
[13] = molecular target: T2, Phosphatidylinositol 4,5-bisphosphate 3-kinase catalytic subunit delta isoform (Homo sapiens, UniProt O00329); assay: Inhibition of human PI3Kdelta
T2 sequence (O00329 whole entry): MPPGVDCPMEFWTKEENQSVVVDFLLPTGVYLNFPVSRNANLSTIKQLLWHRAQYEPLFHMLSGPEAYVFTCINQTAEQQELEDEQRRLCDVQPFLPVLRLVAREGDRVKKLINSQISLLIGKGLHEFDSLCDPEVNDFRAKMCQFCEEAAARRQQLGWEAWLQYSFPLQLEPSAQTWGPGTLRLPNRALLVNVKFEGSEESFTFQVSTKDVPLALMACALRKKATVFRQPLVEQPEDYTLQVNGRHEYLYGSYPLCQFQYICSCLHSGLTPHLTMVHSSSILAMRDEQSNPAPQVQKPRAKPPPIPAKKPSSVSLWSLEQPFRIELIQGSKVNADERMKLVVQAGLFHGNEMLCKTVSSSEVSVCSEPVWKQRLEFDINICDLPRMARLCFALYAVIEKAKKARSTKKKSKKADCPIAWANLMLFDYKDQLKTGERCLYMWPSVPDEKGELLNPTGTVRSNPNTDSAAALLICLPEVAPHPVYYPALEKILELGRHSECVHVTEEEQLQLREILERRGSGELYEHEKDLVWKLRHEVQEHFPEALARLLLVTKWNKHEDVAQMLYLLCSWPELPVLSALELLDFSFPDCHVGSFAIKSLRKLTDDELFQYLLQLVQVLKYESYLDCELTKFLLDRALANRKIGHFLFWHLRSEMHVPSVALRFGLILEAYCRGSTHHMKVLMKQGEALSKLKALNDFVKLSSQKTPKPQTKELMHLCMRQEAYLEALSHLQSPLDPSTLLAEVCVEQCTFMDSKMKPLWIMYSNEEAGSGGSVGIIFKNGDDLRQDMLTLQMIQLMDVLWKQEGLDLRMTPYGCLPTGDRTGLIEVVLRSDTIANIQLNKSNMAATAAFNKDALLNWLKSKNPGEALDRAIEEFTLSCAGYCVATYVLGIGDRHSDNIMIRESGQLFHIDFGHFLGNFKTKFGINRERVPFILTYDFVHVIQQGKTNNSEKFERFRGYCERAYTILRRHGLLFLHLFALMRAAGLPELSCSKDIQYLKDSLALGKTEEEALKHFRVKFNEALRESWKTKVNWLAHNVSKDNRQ

[14] = tested on: A549; assay: Antiproliferative activity against human A549 cells after 72 hrs by luminescence-based cell viability assay; type: functional; details: A549, 72 h
[15] = tested on: COLO 205; assay: Antiproliferative activity against human COLO205 cells after 72 hrs by luminescence-based cell viability assay; type: functional; details: COLO 205, 72 h
[16] = tested on: HT-29; assay: Antiproliferative activity against human HT-29 cells after 72 hrs by luminescence-based cell viability assay; type: functional; details: HT-29, 72 h
[17] = molecular target: T3, NUAK family SNF1-like kinase 1 (Homo sapiens, UniProt O60285); assay: Inhibition of human Nuak1
T3 sequence (O60285 whole entry): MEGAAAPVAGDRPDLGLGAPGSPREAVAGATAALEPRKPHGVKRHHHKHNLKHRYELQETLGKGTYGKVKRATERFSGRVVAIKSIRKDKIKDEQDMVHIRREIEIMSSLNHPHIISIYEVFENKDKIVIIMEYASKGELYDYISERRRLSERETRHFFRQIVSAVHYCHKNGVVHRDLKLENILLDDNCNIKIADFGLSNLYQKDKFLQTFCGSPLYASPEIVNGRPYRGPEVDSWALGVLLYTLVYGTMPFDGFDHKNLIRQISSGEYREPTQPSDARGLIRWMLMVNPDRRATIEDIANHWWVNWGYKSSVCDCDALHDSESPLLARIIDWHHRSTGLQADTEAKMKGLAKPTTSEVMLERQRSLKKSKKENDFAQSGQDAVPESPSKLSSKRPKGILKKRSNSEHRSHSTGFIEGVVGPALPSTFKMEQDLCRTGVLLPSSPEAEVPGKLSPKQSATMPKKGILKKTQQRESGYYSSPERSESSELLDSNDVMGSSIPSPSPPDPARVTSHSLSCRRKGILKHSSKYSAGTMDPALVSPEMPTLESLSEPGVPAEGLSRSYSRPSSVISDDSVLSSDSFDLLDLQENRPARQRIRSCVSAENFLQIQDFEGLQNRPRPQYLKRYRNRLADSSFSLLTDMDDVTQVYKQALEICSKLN

SMILES | fraction unbound at 6 h, 2000 ng/mL [1] | solubility at 0.25 h, 200 µM [2] [µM] | IC50 [3] [nM] | IC50 [4] [nM] | IC50 [5] [nM] | also measured
COc1ccc2ncn(-c3cc(O[C@H](C)c4ccccc4C(F)(F)F)c(C(N)=O)s3)c2c1 [GSK-317315A] | 0.005 | 1 (≈ 0.461 µg/mL) | 476 | 41 | 3 | 
C[C@@H](Oc1cc(-n2cnc3ccc(OC[C@H](O)CN4CCCC4)cc32)sc1C(N)=O)c1ccccc1Cl (single isomer, unassigned) | 0.038 | 170 (≈ 92 µg/mL) | 45 |  |  | 
COc1cc2ncn(-c3cc(O[C@H](C)c4ccccc4Cl)c(C(N)=O)s3)c2cc1OC [GSK-237701A] |  | 2 (≈ 0.916 µg/mL) | 25 | 6 |  | 
CC(Oc1cc(-n2cnc3ccc(O[C@@H]4CCCN(C)CC4)cc32)sc1C(N)=O)c1ccccc1Cl (single isomer, unassigned) | 0.02 | 200 (≈ 105 µg/mL) | 13 |  |  | 
COc1cc2ncn(-c3cc(O[C@@H](C)c4ccccc4Cl)c(C(N)=O)s3)c2cc1OC [GSK-237700A] |  |  | 994 | 44 |  | 
CC(Oc1cc(-n2cnc3ccc(OC4CCN(C)CC4)cc32)sc1C(N)=O)c1ccccc1C(F)(F)F (single isomer, unassigned) | 0.052 | 179 (≈ 97.5 µg/mL) | 12 | 270 |  | IC50 [6]: 25 nM; IC50 [7]: 800 nM; IC50 [8]: 340 nM; IC50 [9]: 110 nM; IC50 [10]: 10 nM; IC50 [11]: 32 nM; IC50 [12]: 390 nM; IC50 [13]: 530 nM; IC50 [14]: 14 nM; IC50 [15]: 5 nM; IC50 [16]: 3 nM; IC50 [17]: 840 nM
CC(Oc1cc(-n2cnc3ccc(O[C@H]4CCCN(C)CC4)cc32)sc1C(N)=O)c1ccccc1Cl (single isomer, unassigned) | 0.031 | ≥ 200 | 17 |  |  | 
COc1cc2ncn(-c3cc(OCc4ccccc4Cl)c(C(N)=O)s3)c2cc1OC [GW852849X] |  |  | 1140 | 9 |  | 
CC(Oc1cc(-n2cnc3ccc(OC4CCN(C)CC4)cc32)sc1C(N)=O)c1ccccc1Cl (single isomer, unassigned) [GSK-579289A] | 0.085 | ≥ 190 | 11 | 630 |  | IC50 [6]: 21 nM; IC50 [7]: 1200 nM; IC50 [8]: 310 nM; IC50 [9]: 420 nM; IC50 [10]: 9 nM; IC50 [11]: 11 nM; IC50 [13]: 440 nM; IC50 [14]: 11 nM; IC50 [15]: 5 nM; IC50 [16]: 3 nM; IC50 [17]: 2000 nM
CC(Oc1cc(-n2cnc3ccc(OCC4CCN(C)CC4)cc32)sc1C(N)=O)c1ccccc1C(F)(F)F (single isomer, unassigned) [GSK-326090A] | 0.023 | 109 (≈ 60.9 µg/mL) | 30 | 550 | 7 | 
CC(Oc1cc(-n2cnc3ccc(OCCCN(C)C)cc32)sc1C(N)=O)c1ccccc1Cl (single isomer, unassigned) | 0.026 | 161 (≈ 80.3 µg/mL) | 32 |  |  | 
CC(Oc1cc(-n2cnc3ccc(OC[C@@H](O)CO)cc32)sc1C(N)=O)c1ccccc1Cl (single isomer, unassigned) [GSK-978744A] |  | 15 (≈ 7.32 µg/mL) | 73 | 61 | 1 | 
CC(Oc1cc(-n2cnc3ccc(OCC4CCN(C)CC4)cc32)sc1C(N)=O)c1ccccc1Cl (single isomer, unassigned) [GSK-571989A] | 0.021 | ≥ 172 | 34 | 1100 | 6 | 
COc1ccc2ncn(-c3cc(O[C@H](C)c4ccccc4Cl)c(C(N)=O)s3)c2c1 [GSK-317314A] | 0.005 | 3 (≈ 1.28 µg/mL) | 321 | 35 | 1 | 
CC(Oc1cc(-n2cnc3ccc(OC4CCNCC4)cc32)sc1C(N)=O)c1ccccc1C(F)(F)F (single isomer, unassigned) | 0.034 | 104 (≈ 55.2 µg/mL) | 15 |  |  | 
